{"source": "patent US20070122392A1", "about": "“Propagation of undifferentiated embryonic stem cells in hyaluronic acid hydrogel” (priority 2005, published 2007)", "key": {"[1]": {"assay": "Hyaluronidase degradation of HA hydrogel and release of hESCs", "description": "(§1) Cell-gel constructs were cultivated in hESC grwoth medium containing 100 ng/ml bFGF or MEF conditioned media as previously described^1 Briefly, hESCs growth medium was incubated on inactivated MEF for 24 hours and collected and filtrated. bFGF (4 ng/ml) was added before use. Constructs were incubated up to 40 days. To release encapsulated hESCs, HA constructs were incubated for 24 h in hESC growth medium containing 100, 500, 1000 or 2000 U/ml hyaluronidase (Sigma, St. Louis, Mo.). For re-culture, cells were collected, centrifuged, washed three times with PBS to remove any hydrogel residues, re-suspended in growth medium, and cultured on MEF coated dishes using standard methods^22,23. For EB formation, hESCs were cultivated in non-adherent Petri-dishes."}, "hESCs [2]": {"system": "hESCs", "assay": "Long-term (24 hours) hyaluronidase treatment of hESC colonies", "type": "cell-based, human", "details": "growth medium containing hyaluronidase at all concentrations", "description": "as §1"}, "hESCs [3]": {"system": "hESCs", "assay": "Karyotyping analysis", "type": "cell-based, human", "details": "hESCs on MEFs (H9 p22; H13 p25) treated with hyaluronidase 2000 U/ml for 24 h", "description": "Karyotyping analysis. Cells were prepared and analyzed as previously described and recommended^30. Karyotyping analysis was performed by Dana Faber /Harvard Cancer Research Center, Cytogenetics Laboratory, Cambridge, Mass."}}}
{"substance": "hyaluronidase", "values": [{"measurement": "degradation of the HA hydrogel", "setting": "[1]; 2000 U/ml hyaluronidase in growth medium", "result": "complete degradation"}, {"measurement": "state of hydrogel and hESCs", "setting": "[1]; 2000 U/ml hyaluronidase in growth medium, after 18 hr", "result": "small particles of hydrogels remained that trapped hESCs"}, {"measurement": "release of hESC colonies from the hydrogel", "setting": "[1]; 2000 U/ml hyaluronidase in growth medium, after 24 hr", "result": "completely released"}, {"measurement": "degradation of HA hydrogels", "setting": "[1]; hyaluronidase concentrations of <1000 U/ml, 24 hr", "result": "only partial degradation"}, {"measurement": "hESC colony morphology and viability", "setting": "hESCs [2]", "result": "preserved their normal morphology with no apparent loss of viability"}, {"measurement": "karyotype", "setting": "hESCs [3]", "result": "normal 46XX karyotyping"}]}
